Assay results: ChEMBL document CHEMBL1649268, “Comparative in vitro activity profile of oritavancin against recent gram-positive clinical isolates” (2009)

Key:
Format in all cases: functional
[1] = tested on: Streptococcus pneumoniae; assay: Antimicrobial activity against Streptococcus pneumoniae clinical isolates by broth microdilution method
[2] = tested on: Streptococcus pneumoniae; assay: Antimicrobial activity against penicillin-susceptible Streptococcus pneumoniae clinical isolates by broth microdilution method
[3] = tested on: Streptococcus pneumoniae; assay: Antimicrobial activity against penicillin-intermediate Streptococcus pneumoniae clinical isolates by broth microdilution method
[4] = tested on: Streptococcus pneumoniae; assay: Antimicrobial activity against penicillin-resistant Streptococcus pneumoniae clinical isolates by broth microdilution method
[5] = tested on: Streptococcus; assay: Antimicrobial activity against erythromycin-nonsusceptible Streptococcus Group F clinical isolates by broth microdilution method
[6] = tested on: Streptococcus; assay: Antimicrobial activity against erythromycin-susceptible Streptococcus Group F clinical isolates by broth microdilution method
[7] = tested on: Streptococcus; assay: Antimicrobial activity against Streptococcus Group F clinical isolates by broth microdilution method
[8] = Antimicrobial activity against erythromycin-nonsusceptible Streptococcus Group G clinical isolates by broth microdilution method; settings: Streptococcus sp. 'group G'
[9] = Antimicrobial activity against erythromycin-susceptible Streptococcus Group G clinical isolates by broth microdilution method; settings: Streptococcus sp. 'group G'
[10] = Antimicrobial activity against Streptococcus Group G clinical isolates by broth microdilution method; settings: Streptococcus sp. 'group G'
[11] = Antimicrobial activity against erythromycin-nonsusceptible Streptococcus Group C clinical isolates by broth microdilution method; settings: Streptococcus sp. 'group C'
[12] = Antimicrobial activity against erythromycin-susceptible Streptococcus Group C clinical isolates by broth microdilution method; settings: Streptococcus sp. 'group C'
[13] = Antimicrobial activity against Streptococcus Group C clinical isolates by broth microdilution method; settings: Streptococcus sp. 'group C'
[14] = tested on: Streptococcus pyogenes; assay: Antimicrobial activity against erythromycin-nonsusceptible Streptococcus pyogenes clinical isolates by broth microdilution method
[15] = tested on: Streptococcus pyogenes; assay: Antimicrobial activity against erythromycin-susceptible Streptococcus pyogenes clinical isolates by broth microdilution method
[16] = tested on: Streptococcus pyogenes; assay: Antimicrobial activity against Streptococcus pyogenes clinical isolates by broth microdilution method
[17] = tested on: Streptococcus agalactiae; assay: Antimicrobial activity against erythromycin-nonsusceptible Streptococcus agalactiae clinical isolates by broth microdilution method
[18] = tested on: Streptococcus agalactiae; assay: Antimicrobial activity against erythromycin-susceptible Streptococcus agalactiae clinical isolates by broth microdilution method
[19] = tested on: Streptococcus agalactiae; assay: Antimicrobial activity against Streptococcus agalactiae clinical isolates by broth microdilution method
[20] = tested on: Enterococcus faecium; assay: Antimicrobial activity against Enterococcus faecium expressing VanB gene clinical isolates by broth microdilution method
[21] = tested on: Enterococcus faecium; assay: Antimicrobial activity against Enterococcus faecium expressing VanA gene clinical isolates by broth microdilution method
[22] = tested on: Enterococcus faecium; assay: Antimicrobial activity against vancomycin-nonsusceptible Enterococcus faecium clinical isolates by broth microdilution method
[23] = tested on: Enterococcus faecium; assay: Antimicrobial activity against vancomycin-susceptible Enterococcus faecium clinical isolates by broth microdilution method
[24] = tested on: Enterococcus faecium; assay: Antimicrobial activity against Enterococcus faecium clinical isolates by broth microdilution method
[25] = tested on: Enterococcus faecalis; assay: Antimicrobial activity against Enterococcus faecalis expressing VanB gene clinical isolates by broth microdilution method
[26] = tested on: Enterococcus faecalis; assay: Antimicrobial activity against Enterococcus faecalis expressing VanA gene clinical isolates by broth microdilution method
[27] = tested on: Enterococcus faecalis; assay: Antimicrobial activity against vancomycin-nonsusceptible Enterococcus faecalis clinical isolates by broth microdilution method
[28] = tested on: Enterococcus faecalis; assay: Antimicrobial activity against vancomycin-susceptible Enterococcus faecalis clinical isolates by broth microdilution method
[29] = tested on: Enterococcus faecalis; assay: Antimicrobial activity against Enterococcus faecalis clinical isolates by broth microdilution method
[30] = tested on: Staphylococcus haemolyticus; assay: Antimicrobial activity against oxacillin-resistant Staphylococcus haemolyticus clinical isolates by broth microdilution method
[31] = tested on: Staphylococcus haemolyticus; assay: Antimicrobial activity against oxacillin-susceptible Staphylococcus haemolyticus clinical isolates by broth microdilution method
[32] = tested on: Staphylococcus haemolyticus; assay: Antimicrobial activity against Staphylococcus haemolyticus clinical isolates by broth microdilution method
[33] = tested on: Staphylococcus epidermidis; assay: Antimicrobial activity against oxacillin-resistant Staphylococcus epidermidis clinical isolates by broth microdilution method
[34] = tested on: Staphylococcus epidermidis; assay: Antimicrobial activity against oxacillin-susceptible Staphylococcus epidermidis clinical isolates by broth microdilution method
[35] = tested on: Staphylococcus epidermidis; assay: Antimicrobial activity against Staphylococcus epidermidis clinical isolates by broth microdilution method
[36] = tested on: Staphylococcus aureus; assay: Antimicrobial activity against oxacillin-resistant Staphylococcus aureus clinical isolates by broth microdilution method
[37] = tested on: Staphylococcus aureus; assay: Antimicrobial activity against oxacillin-susceptible Staphylococcus aureus clinical isolates by broth microdilution method
[38] = tested on: Staphylococcus aureus; assay: Antimicrobial activity against Staphylococcus aureus clinical isolates by broth microdilution method
[39] = tested on: Staphylococcus aureus; assay: Antimicrobial activity against vancomycin-resistant Staphylococcus aureus clinical isolates
[40] = tested on: Staphylococcus aureus; assay: Antimicrobial activity against vancomycin-intermediate Staphylococcus aureus clinical isolates
[41] = tested on: Staphylococcus aureus; assay: Antimicrobial activity against heterogeneous vancomycin-intermediate Staphylococcus aureus clinical isolates
[42] = tested on: Staphylococcus aureus; assay: Antimicrobial activity against vancomycin- susceptible Staphylococcus aureus clinical isolates

CN[C@H](CC(C)C)C(=O)N[C@H]1C(=O)N[C@@H](CC(N)=O)C(=O)N[C@H]2C(=O)N[C@H]3C(=O)N[C@H](C(=O)N[C@H](C(=O)O)c4cc(O)cc(O)c4-c4cc3ccc4O)[C@H](O[C@H]3C[C@](C)(N)[C@@H](O)[C@H](C)O3)c3ccc(c(Cl)c3)Oc3cc2cc(c3O[C@@H]2O[C@H](CO)[C@@H](O)[C@H](O)[C@H]2O[C@H]2C[C@](C)(NCc3ccc(-c4ccc(Cl)cc4)cc3)[C@@H](O)[C@H](C)O2)Oc2ccc(cc2Cl)[C@H]1O [ORITAVANCIN]
0.004 µg/mL: MIC90 [2]
0.5 µg/mL: MIC90 [6] | MIC90 [7] | MIC90 [9] | MIC90 [10] | MIC90 [13] | MIC90 [39]
0.25 µg/mL: MIC90 [5] | MIC90 [8] | MIC90 [11] | MIC90 [14] | MIC90 [15] | MIC90 [16] | MIC90 [17] | MIC90 [18] | MIC90 [19] | MIC90 [21] | MIC90 [22] | MIC90 [33] | MIC90 [34] | MIC90 [35]
0.008 µg/mL: MIC90 [1] | MIC90 [3] | MIC90 [4]
0.06 µg/mL: MIC90 [20] | MIC90 [25] | MIC90 [28] | MIC90 [29] | MIC90 [31]
1 µg/mL: MIC90 [26] | MIC90 [27] | MIC90 [40] | MIC90 [41]
0.12 µg/mL: MIC90 [24] | MIC90 [30] | MIC90 [32] | MIC90 [36] | MIC90 [37] | MIC90 [38] | MIC90 [42]
0.03 µg/mL: MIC90 [23]
≤ 0.0005 µg/mL: MIC [12]
